Values quoted from earlier work, collected in patent publication US20140206025A1, “Use Of Detection Of Aspartate Transaminase And Lactate Dehydrogenase In Early Evaluation Of Clinical Efficacy Of Antitumor Intervention Measure” (Beijing Sunbio Biotech Co., Ltd., priority 2011, published 2014).

System: tumor cells
Conditions: Cytokin & Growth Factor Reviews 14 (2003) 337-348

TRAIL/APO-2L: wild type Tumor necrosis factor-related apoptosis-inducing ligand, acts on Death Receptor 4 and/or 5
induction of apoptosis of tumor cells: selectively induces the apoptosis of multiple tumor cells | toxic effect on normal cells: no obvious toxic effect on normal cells
